# Test results from US20210069295A1, “GALECTINS CONTROL MTOR IN RESPONSE TO ENDOMEMBRANE DAMAGE AND PROVIDE A MECHANISM AND TARGET FOR THE TREATMENT OF AUTOPHAGY-RELATED DISEASES” (STC. UNM, priority 2017, published 2021).
# Experiments:
# mTOR [1] = test: mTOR localization relative to LAMP2-positive lysosomes (HC and confocal microscopy); type: cell-based; conditions: HeLa cells
# Method: (§1) (A) Dose-response analysis of mTOR activity in HEK293T cells treated with glycyl-L-phenylalanine 2-naphththylamide (GPN) in full medium for 1 h. mTOR activity was monitored by inununoblotting analysis of S6K1 (T389) and ULK1 (S757) phosphorylation (phosphorylated S6K (T389) and ULK1 (S757) relative to total S6K and ULK1, respectively). (B) Analysis of mTOR activity (as in A) after GPN washout. HEK293T cells were treated with 100 μM GPN for 1 h followed by 1 h washout in full medium. Data, means±SEM (n=3), **p<0.01, ANOVA. (C) Analysis of mTOR activity (as in A) in HEK293T cells treated with increasing doses of silica in full medium for 1 h. (D) HEK293T cells were treated with lysosomal damaging agents (LLOMe, Leu-Leu-OMe) for 1 h in full medium and status of acidified organelles assessed by quantifying LysoTracker Red DND-99 puncta using automated high-content imaging and analysis (HC). None-treated cells were as control (Ctrl). White masks, algorithm defined cell boundaries (primary objects); yellow masks, computer-identified LysoTracker Red puncta (target objects). Data, means±SEM, n≥3 independent experiments (500 primary objects counted per well; ≥5 wells/sample per each experiment), **p<0.01, ANOVA. (E) Analysis of mTOR activity in primary human macrophages treated with GPN. Human peripheral blood monocyte derived macrophages were treated with 100 μM GPN in full medium or starved in EBSS for 1 h, and mTOR activity measured as in A. None-treated cells were as control (Ctrl). (F) Quantification by HC of overlaps between mTOR and LAMP2 (representative images shown in FIG. S1D) in HeLa cells treated with lysosomal damaging agents for 1 h in full medium. Data, means±SEM, n≥3 independent experiments (500 primary objects counted per well; ≥5 wells/sample per each experiment) **p<0.01, ANOVA. (G) Immunofluorescence confocal microscopy visualization of mTOR localization relative to LAMP2-positive lysosomes. […] (H) Analysis of TFEB nuclear translocation in HeLa cells treated with 100 μM GPN in full medium for 1 h, and the nuclear translocation of TFEB was measured by HC (Nuclei, Hoechst 33342, blue pseudocolor; TFEB red fluorescence, Alexa-568). […] White masks, computer algorithm-defined cell boundaries (primary objects); pink masks, computer-identified nuclear TFEB based on the average intensity of Alexa-568 fluorescence. Data, means±SEM, n≥3 independent experiments (500 primary objects counted per well; ≥5 wells/sample per each experiment), **p<0.01, ANOVA. (I) HeLa cells were treated as indicated in full medium for 1 h, and LC3 puncta were quantified by HC. […] Data, means±SEM, n≥3 independent experiments (500 primary objects counted per well; ≥5 wells/sample per each experiment), **p<0.01, ANOVA. […]
# [2] = system: bone marrow-derived macrophages (BMMs); test: LysoTracker Red DND-99 staining in bone marrow-derived macrophages (BMMs); type: cell-based, murine; conditions: GPN 400 μM or LLOMe, 1 h
# TFEB = TFEB nuclear translocation by high-content microscopy in HeLa cells; type: cell-based; conditions: 1 h full medium
# Method: (A) Dose-response analysis of mTOR activity in HEK293T cells treated with glycyl-L-phenylalanine 2-naphththylamide (GPN) in full medium for 1 h. mTOR activity was monitored by inununoblotting analysis of S6K1 (T389) and ULK1 (S757) phosphorylation (phosphorylated S6K (T389) and ULK1 (S757) relative to total S6K and ULK1, respectively). (B) Analysis of mTOR activity (as in A) after GPN washout. HEK293T cells were treated with 100 μM GPN for 1 h followed by 1 h washout in full medium. Data, means±SEM (n=3), **p<0.01, ANOVA. (C) Analysis of mTOR activity (as in A) in HEK293T cells treated with increasing doses of silica in full medium for 1 h. (D) HEK293T cells were treated with lysosomal damaging agents (LLOMe, Leu-Leu-OMe) for 1 h in full medium and status of acidified organelles assessed by quantifying LysoTracker Red DND-99 puncta using automated high-content imaging and analysis (HC). […] Data, means±SEM, n≥3 independent experiments (500 primary objects counted per well; ≥5 wells/sample per each experiment), **p<0.01, ANOVA. […] Human peripheral blood monocyte derived macrophages were treated with 100 μM GPN in full medium or starved in EBSS for 1 h, and mTOR activity measured as in A. None-treated cells were as control (Ctrl). […] Data, means±SEM, n≥3 independent experiments (500 primary objects counted per well; ≥5 wells/sample per each experiment) **p<0.01, ANOVA. […]
# mTOR [3] = test: mTOR activity by immunoblotting of S6K1 (T389) and ULK1 (S757) phosphorylation in HEK293T cells; type: cell-based; conditions: HEK293T cells, full medium, 1 h
# Method: as §1
smiles,measurement,setting,value
"COC(=O)[C@H](CC(C)C)NC(=O)[C@@H](N)CC(C)C [LLOMe, Leu-Leu-OMe]",mTOR localization after washout,mTOR [1]; 2 mM LLOMe 1 h followed by 1 h washout,relocalization of mTOR to lysosomes
same,"mTOR localization (lysosomes vs cytosol, overlap with LAMP2)",mTOR [1]; 1 h full medium,translocated from lysosomes to the cytosol
same,LysoTracker Red DND-99 staining in BMMs (lysosomal damage),[2],reduced LysoTracker Red DND-99 staining
same,TFEB nuclear translocation,TFEB,translocated to the nucleus from the cytoplasm
same,mTOR activity (phosphorylation of its substrates S6K1 and ULK1),mTOR [3],caused inhibition of mTOR activity
